According to ChEMBL document CHEMBL4819022, “Discovery of JNJ-63576253: A Clinical Stage Androgen Receptor Antagonist for F877L Mutant and Wild-Type Castration-Resistant Prostate Cancer (mCRPC)” (J Med Chem, 2021):
The source made the active and inactive calls. The rule behind the calls is not given here.

Experiments:
[1] = Drug metabolism in dog liver microsomes assessed as unchanged parent compound at 10 uM incubated for 60 mins in presence of glutathione and NADPH by LC-MS/MS analysis; format: ADME, Canis lupus familiaris, Microsome; conditions: read-out: Drug metabolism
[2] = test system: T1, Androgen receptor (Homo sapiens), P10275 [F877L]; test: Antagonist activity at AR F877L mutant (unknown origin) transfected in human LNCAP cells cotransfected with ARE-LUC incubated for 20 to 24 hrs in presence of AR agonist R1881 by steady-glo luciferase reporter gene assay relative to control; format: cell-based; conditions: filed as antagonist, time 20-24 hrs
T1 sequence (whole entry): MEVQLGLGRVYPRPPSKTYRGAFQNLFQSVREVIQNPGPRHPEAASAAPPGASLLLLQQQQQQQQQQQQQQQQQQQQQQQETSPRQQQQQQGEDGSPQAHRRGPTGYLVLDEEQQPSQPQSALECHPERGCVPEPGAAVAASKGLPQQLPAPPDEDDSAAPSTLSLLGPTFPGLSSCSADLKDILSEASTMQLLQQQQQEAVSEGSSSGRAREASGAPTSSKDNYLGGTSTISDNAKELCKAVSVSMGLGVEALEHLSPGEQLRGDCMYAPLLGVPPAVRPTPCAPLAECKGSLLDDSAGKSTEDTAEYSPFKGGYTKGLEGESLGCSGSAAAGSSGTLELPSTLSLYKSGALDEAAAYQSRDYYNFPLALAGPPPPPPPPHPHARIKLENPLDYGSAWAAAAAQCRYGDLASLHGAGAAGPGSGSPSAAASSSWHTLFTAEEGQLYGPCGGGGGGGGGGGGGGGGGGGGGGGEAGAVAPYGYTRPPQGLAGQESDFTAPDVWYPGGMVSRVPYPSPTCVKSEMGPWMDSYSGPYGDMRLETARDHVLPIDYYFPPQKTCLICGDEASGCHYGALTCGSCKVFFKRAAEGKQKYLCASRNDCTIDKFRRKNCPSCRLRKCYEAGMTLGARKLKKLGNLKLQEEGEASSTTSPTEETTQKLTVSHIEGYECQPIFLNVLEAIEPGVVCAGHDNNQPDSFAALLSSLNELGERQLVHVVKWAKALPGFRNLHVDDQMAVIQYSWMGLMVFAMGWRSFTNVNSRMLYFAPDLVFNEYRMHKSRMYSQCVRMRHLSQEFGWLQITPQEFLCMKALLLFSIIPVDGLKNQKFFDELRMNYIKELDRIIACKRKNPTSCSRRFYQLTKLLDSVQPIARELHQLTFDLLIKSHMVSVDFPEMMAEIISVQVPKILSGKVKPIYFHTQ

[3] = Drug metabolism in dog liver microsomes assessed as unchanged parent compound at 10 uM incubated for 60 mins in presence of glutathione by LC-MS/MS analysis; format: ADME, Canis lupus familiaris, Microsome; conditions: read-out: Drug metabolism
[4] = target: T2, Androgen receptor (Rattus norvegicus) (UniProt P15207); conditions: Sprague-Dawley, dose 30.0 mg/kg, time 10.0 day
T2 sequence (whole entry): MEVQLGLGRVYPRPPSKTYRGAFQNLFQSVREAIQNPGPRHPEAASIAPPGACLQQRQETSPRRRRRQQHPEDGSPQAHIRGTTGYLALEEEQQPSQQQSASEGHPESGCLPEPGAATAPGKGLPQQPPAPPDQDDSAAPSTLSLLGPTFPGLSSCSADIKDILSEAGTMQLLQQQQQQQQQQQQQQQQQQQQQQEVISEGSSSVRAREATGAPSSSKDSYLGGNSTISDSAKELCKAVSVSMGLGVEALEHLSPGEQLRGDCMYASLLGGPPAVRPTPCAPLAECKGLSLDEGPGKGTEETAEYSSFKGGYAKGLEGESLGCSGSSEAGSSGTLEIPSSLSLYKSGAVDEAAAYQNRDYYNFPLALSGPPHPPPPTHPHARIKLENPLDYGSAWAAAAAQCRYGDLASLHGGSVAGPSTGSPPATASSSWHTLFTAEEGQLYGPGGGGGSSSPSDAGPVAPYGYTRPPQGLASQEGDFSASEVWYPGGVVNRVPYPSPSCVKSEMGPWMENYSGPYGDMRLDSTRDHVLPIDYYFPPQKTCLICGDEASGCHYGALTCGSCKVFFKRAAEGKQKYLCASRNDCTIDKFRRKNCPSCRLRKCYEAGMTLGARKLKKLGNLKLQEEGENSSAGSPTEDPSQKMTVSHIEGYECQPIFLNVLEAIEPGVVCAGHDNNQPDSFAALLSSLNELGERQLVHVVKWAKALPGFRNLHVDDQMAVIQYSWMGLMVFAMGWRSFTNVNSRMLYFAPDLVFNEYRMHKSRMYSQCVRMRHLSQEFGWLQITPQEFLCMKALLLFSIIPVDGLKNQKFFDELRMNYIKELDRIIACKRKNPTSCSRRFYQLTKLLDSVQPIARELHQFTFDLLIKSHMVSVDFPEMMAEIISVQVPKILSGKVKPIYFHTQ

[5] = Apparent passive permeability from apical to basolateral side in MDCK-MDR1 cells in presence P-gp inhibitor; format: ADME, cell-based, Canis lupus familiaris; conditions: dog, MDCK-MDR1, with P-gp inhibitor (name and concentration not stated)
VCaP = test: Antiproliferative activity against human VCaP cells expressing wild-type androgen receptor assessed as reduction in cell viability incubated for 5 days in presence of R1881 by CellTiter-glo assay; format: functional, cell-based; conditions: 120 h
[6] = AUC(0 to last) in CD1 mouse at 10 mg/kg, po; format: ADME, organism-based; set-up: route oral, time 0 - last, dose 10 mg/kg; conditions: CD1, mouse, in vivo
[7] = Cmax in CD1 mouse at 10 mg/kg, po; format: ADME, organism-based; set-up: route oral, dose 10 mg/kg; conditions: in vivo
[8] = target: T2, Androgen receptor (Rattus norvegicus); conditions: Sprague-Dawley, dose 30.0 mg/kg, time 10.0 day; remark: listed apart in the source
[9] = Half life in CD1 mouse at 2 mg/kg, iv; format: ADME, organism-based; conditions: in vivo
[10] = Clearance in CD1 mouse at 2 mg/kg, iv; format: ADME, organism-based; conditions: in vivo
[11] = test system: liver microsomes (Homo sapiens); test: Half life in human liver microsomes
[12] = Drug concentration in SCID mouse plasma xenografted with human LNCaP cells harboring AR F877L mutant at 30 mg/kg, po QD administered via gavage for 28 days; format: ADME, organism-based; conditions: time 28 day, read-out: Ct
[13] = Oral bioavailability in CD1 mouse at 10 mg/kg; format: ADME, organism-based; conditions: CD1, mouse, in vivo
[14] = target: T2, Androgen receptor (Rattus norvegicus); conditions: Sprague-Dawley, dose 30.0 mg/kg, time 10.0 day; remark: listed apart in the source
LNCaP = test: Antitumor activity against human LNCaP cells harboring AR F877L mutant xenografted in SCID mouse assessed as tumor growth inhibition at 30 mg/kg, po QD administered via gavage for 28 days and measured twice weekly relative to control; format: functional; conditions: time 28 day, read-out: TGI
[15] = Volume of distribution at steady state in CD1 mouse at 2 mg/kg, iv; format: ADME, organism-based; conditions: in vivo, read-out: Vdss
[16] = target: T2, Androgen receptor (Rattus norvegicus); conditions: Sprague-Dawley, dose 30.0 mg/kg, time 10.0 day; remark: listed apart in the source
[17] = target: T2, Androgen receptor (Rattus norvegicus); conditions: Sprague-Dawley, dose 30.0 mg/kg, time 10.0 day; remark: listed apart in the source
Androgen receptor = Androgen receptor (Homo sapiens, UniProt P10275, F877L)

Compound | remaining at 1 h, 10 µM [1] [%] | Imax [2] [%] | remaining at 1 h, 10 µM [3] [%] | inhibition [4] | Papp A→B [5] [×10⁻⁶ cm/s] | IC50 (VCaP) [nM] | AUC(0-t) [6] [ng·h/mL] | Cmax [7] [nM] | inhibition [8] | half-life [9] [h] | clearance [10] [mL/min/kg] | half-life [11] [h] | concentration at […] [12] [ng/mL] | bioavailability [13] [%] | inhibition [14] | Vd [15] [L/kg] | inhibition [16] | inhibition [17] | EC50 (Androgen receptor) [nM] | inhibition in vivo at 30 mg/kg (LNCaP) [%]
CN1CCC(Oc2ncc(N3C(=S)N(c4cnc(C#N)c(C(F)(F)F)c4)C(=O)C34CCC4)cn2)CC1 | – | > 90 | – | – | – | – | – | – | – | – | – | – | – | – | – | – | – | – | – | –
Cc1cc(N2C(=O)C3(CCC3)N(c3ccc(OC4CCNCC4)nc3)C2=S)cnc1C#N | – | > 90 | – | – | 3.38 | 264 | 7800 | 1880 | – | 3 | 19.4 | > 3 | – | 92 | – | 4.35 | – | – | – | –
CNC(=O)c1ccc(N2C(=S)N(c3ccc(C#N)c(C(F)(F)F)c3)C(=O)C2(C)C)cc1F [ENZALUTAMIDE] | – | – | – | Active | – | 149 | – | – | Active | – | – | – | – | – | Active | – | Active | Active | – | –
N#Cc1ncc(N2C(=O)C3(CCC3)N(c3ccc(O)cc3)C2=S)cc1C(F)(F)F | 91.9 | – | – | – | – | – | – | – | – | – | – | – | – | – | – | – | – | – | – | –
CN1CCC(Oc2ccc(N3C(=S)N(c4cnc(C#N)c(C(F)(F)F)c4)C(=O)C34CCC4)cn2)CC1 | – | > 90 | – | – | 16.2 | 394 | 10900 | 1300 | – | 12.5 | 8.14 | 2.88 | – | 56 | – | 7.69 | – | – | – | –
N#Cc1ncc(N2C(=O)C3(CCC3)N(c3ccc(CN4CCNCC4)cc3)C2=S)cc1C(F)(F)F | – | > 90 | – | inactive | 6.31 | 2780 | 8700 | 840 | inactive | 12.1 | 18.2 | > 3 | – | 97 | inactive | 16.8 | inactive | inactive | – | –

Further lines, with some results ahead:

remaining at 1 h, 10 µM [1] [%] | Imax [2] [%] | remaining at 1 h, 10 µM [3] [%] | inhibition [4] | Papp A→B [5] [×10⁻⁶ cm/s] | IC50 (VCaP) [nM] | AUC(0-t) [6] [ng·h/mL] | Cmax [7] [nM] | inhibition [8] | half-life [9] [h] | clearance [10] [mL/min/kg] | half-life [11] [h] | concentration at […] [12] [ng/mL] | bioavailability [13] [%] | inhibition [14] | Vd [15] [L/kg] | inhibition [16] | inhibition [17] | EC50 (Androgen receptor) [nM] | Compound | inhibition in vivo at 30 mg/kg (LNCaP) [%]
100 | > 90 | 100 | – | – | – | – | – | – | – | – | – | – | – | – | – | – | – | – | N#Cc1ncc(N2C(=O)C3(CCC3)N(c3ccc(O)nc3)C2=S)cc1C(F)(F)F | –
98.8 | > 90 | 100 | Active | 5.62 | 265 | 4900 | 660 | Active | 5.99 | 15 | > 3 | 1750 | 45 | Active | 6.11 | Active | Active | – | N#Cc1ncc(N2C(=O)C3(CCC3)N(c3ccc(OC4CCNCC4)nc3)C2=S)cc1C(F)(F)F [TRC-253] | 87
– | > 90 | – | Active | 12.2 | 503 | 4600 | 780 | Active | 3.7 | 26.7 | > 3 | – | 50 | Active | 8.47 | Active | Active | 45 | N#Cc1ncc(N2C(=O)C3(CCC3)N(c3ccc(OC4CCNCC4)cc3)C2=S)cc1Cl | –
– | > 90 | – | Active | 11.5 | 250 | 6000 | 1880 | Active | 4.1 | 25.4 | > 3 | – | 118 | Active | 6.92 | Active | Active | – | N#Cc1ncc(N2C(=O)C3(CCC3)N(c3ccc(OC4CCNCC4)nc3)C2=S)cc1Cl | –
– | 67 | – | – | – | – | – | – | – | – | – | – | – | – | – | – | – | – | – | N#Cc1ncc(N2C(=O)C3(CCC3)N(c3cnc(OC4CCNCC4)nc3)C2=S)cc1C(F)(F)F | –
– | > 90 | – | Active | – | 263 | 20100 | 2800 | Active | 7.8 | 6.9 | 1.9 | – | 87 | Active | 3.7 | Active | Active | 649 | COc1cc(N2C(=O)C3(CCC3)N(c3ccc(OC4CCN(C)CC4)cc3)C2=S)cnc1C#N | –
